Results from ChEMBL document CHEMBL1201862, “PubChem BioAssay data set” (2004).
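Five compound concentrations were applied to cells in 96-well plates for 48 hours; endpoints were derived by simple linear interpolation of the resulting dose-response curve. GI50 marks 50% less growth.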 Activity calls are given as the source filed them. No stated cut-off is given here; in the data, active = GI50 up to about 1.1 µM and inactive = higher.

Legend:
Assay in all cases: DTP human tumour cell line panel, 48 h
MCF7 = test system: MCF7
NCI-H460 = test system: NCI-H460
DU-145 = test system: DU-145
OVCAR-3 = test system: OVCAR-3
MOLT-4 = test system: MOLT-4
HCT-15 = test system: HCT-15
786-0 = test system: 786-0
SK-OV-3 = test system: SK-OV-3
HCC 2998 = test system: HCC 2998
NCI-H226 = test system: NCI-H226
SF-268 = test system: SF-268
M14 = test system: M14
RXF 393 = test system: RXF 393
EKVX = test system: EKVX
UACC-257 = test system: UACC-257
NCI-H23 = test system: NCI-H23
SW-620 = test system: SW-620
MDA-MB-231 = test system: MDA-MB-231
HOP-92 = test system: HOP-92

Row | SMILES | GI50 (MCF7) | GI50 (NCI-H460) | GI50 (DU-145) | GI50 (OVCAR-3) | GI50 (MOLT-4) | GI50 (HCT-15) [µM] | GI50 (786-0) | GI50 (SK-OV-3) | GI50 (HCC 2998) | GI50 (NCI-H226) | GI50 (SF-268) | GI50 (M14) | GI50 (RXF 393) | GI50 (EKVX) | GI50 (UACC-257) | GI50 (NCI-H23) | GI50 (SW-620) | GI50 (MDA-MB-231) | GI50 (HOP-92)
1 | O=C(O)CCSCc1ccccc1 | > 100 µM (inactive) | > 100 µM (inactive) | > 100 µM (inactive) | > 100 µM (inactive) | > 100 µM (inactive) | > 100 | > 100 µM (inactive) | > 100 µM (inactive) | > 100 µM (inactive) | > 100 µM (inactive) | > 100 µM (inactive) | > 100 µM (inactive) | > 100 µM (inactive) | > 100 µM (inactive) | > 100 µM (inactive) | > 100 µM (inactive) | > 100 µM (inactive) | > 100 µM (inactive) | –
2 | C=C(OC1C(C)=C2C(C1OC(=O)CCCCCCC)C(C)(OC(C)=O)CC(OC(=O)CCC)C1(O)C2OC(=O)C1(C)O)/C(C)=C/C (stereo unspecified) | 0.0125 µM (active) | 0.0125 µM (active) | < 0.0001 µM (active) | – | 0.0125 µM (active) | 0.0316 | < 0.0001 µM (active) | 0.34 µM (active) | 0.0125 µM (active) | 0.0641 µM (active) | 0.0125 µM (active) | < 0.0001 µM (active) | 0.0125 µM (active) | 0.0334 µM (active) | 0.0125 µM (active) | 0.0125 µM (active) | 0.0125 µM (active) | < 0.0001 µM (active) | 0.0125 µM (active)
3 | O=C(O)c1ccccc1/C=C1\Cc2cc3c(cc2C1=O)CCC3 | 20.7 µM (inactive) | 24.2 µM (inactive) | 25.3 µM (inactive) | 31.2 µM (inactive) | 17.4 µM (inactive) | 16.3 | 29 µM (inactive) | 36.2 µM (inactive) | 27.6 µM (inactive) | 24 µM (inactive) | 35.3 µM (inactive) | 23.5 µM (inactive) | 21.3 µM (inactive) | 32.1 µM (inactive) | 26.5 µM (inactive) | 18.1 µM (inactive) | 21.8 µM (inactive) | 20.3 µM (inactive) | –
4 | COc1ccc(C2c3cc4c(cc3OC(NNS(=O)(=O)c3ccc(C)cc3)C2C)OCO4)cc1 (stereo unspecified) | 41.1 µM (inactive) | 41 µM (inactive) | > 100 µM (inactive) | 80.7 µM (inactive) | 13.1 µM (inactive) | 70.1 | 50.1 µM (inactive) | > 100 µM (inactive) | > 100 µM (inactive) | > 100 µM (inactive) | > 100 µM (inactive) | > 100 µM (inactive) | 38.6 µM (inactive) | – | 52.6 µM (inactive) | 99.8 µM (inactive) | 73.5 µM (inactive) | > 100 µM (inactive) | 21.1 µM (inactive)
5 | C=CCNC(=O)NC1=CSC2=NC(=O)C3(NN12)c1ccccc1-c1ccccc13 | > 10 µM (inactive) | > 10 µM (inactive) | > 10 µM (inactive) | – | > 10 µM (inactive) | > 10 | > 10 µM (inactive) | > 10 µM (inactive) | > 10 µM (inactive) | > 10 µM (inactive) | > 10 µM (inactive) | > 10 µM (inactive) | > 10 µM (inactive) | > 10 µM (inactive) | > 10 µM (inactive) | > 10 µM (inactive) | > 10 µM (inactive) | > 10 µM (inactive) | > 10 µM (inactive)
6 | CC(C)(C)CN1[C@@H]2CCCC[C@H]2N(CC(C)(C)C)P1(=O)Cc1ccccc1 | 12.8 µM (inactive) | 13.2 µM (inactive) | 15.6 µM (inactive) | 10.7 µM (inactive) | 11.5 µM (inactive) | 12 | 15.6 µM (inactive) | 15.1 µM (inactive) | 9.14 µM (inactive) | 12.9 µM (inactive) | 15 µM (inactive) | 13.5 µM (inactive) | 10.8 µM (inactive) | 14.3 µM (inactive) | 12.8 µM (inactive) | 13 µM (inactive) | 14 µM (inactive) | 12.2 µM (inactive) | –
7 | CC1(C)OCC(C2OC(OC(=O)c3ccc(C(F)(F)F)cc3)C3OC(C)(C)OC23)O1 (stereo unspecified) | 53.3 µM (inactive) | 49.5 µM (inactive) | > 77.4 µM (inactive) | > 77.4 µM (inactive) | 38 µM (inactive) | > 77.4 | 46.5 µM (inactive) | > 77.4 µM (inactive) | > 77.4 µM (inactive) | > 77.4 µM (inactive) | 45.4 µM (inactive) | > 77.4 µM (inactive) | 28 µM (inactive) | > 77.4 µM (inactive) | > 77.4 µM (inactive) | 58.3 µM (inactive) | > 77.4 µM (inactive) | 63 µM (inactive) | –
